{"source": "patent US20100113510A1", "about": "(priority 2006, published 2010)", "note": "Where “and” joins values, the source holds several entries; their conditions need not be identical. Equal values may be shown once."}
{"target": "T1, human muscarinic acetylcholine M3 receptor (M3-ACh) (Homo sapiens, UniProt P20309)", "T1 construct": "expressed in transfected cells; host or cells: CHO-K1 (Chinese Hamster Ovary) cell membranes", "T1 sequence (P20309 whole entry)": "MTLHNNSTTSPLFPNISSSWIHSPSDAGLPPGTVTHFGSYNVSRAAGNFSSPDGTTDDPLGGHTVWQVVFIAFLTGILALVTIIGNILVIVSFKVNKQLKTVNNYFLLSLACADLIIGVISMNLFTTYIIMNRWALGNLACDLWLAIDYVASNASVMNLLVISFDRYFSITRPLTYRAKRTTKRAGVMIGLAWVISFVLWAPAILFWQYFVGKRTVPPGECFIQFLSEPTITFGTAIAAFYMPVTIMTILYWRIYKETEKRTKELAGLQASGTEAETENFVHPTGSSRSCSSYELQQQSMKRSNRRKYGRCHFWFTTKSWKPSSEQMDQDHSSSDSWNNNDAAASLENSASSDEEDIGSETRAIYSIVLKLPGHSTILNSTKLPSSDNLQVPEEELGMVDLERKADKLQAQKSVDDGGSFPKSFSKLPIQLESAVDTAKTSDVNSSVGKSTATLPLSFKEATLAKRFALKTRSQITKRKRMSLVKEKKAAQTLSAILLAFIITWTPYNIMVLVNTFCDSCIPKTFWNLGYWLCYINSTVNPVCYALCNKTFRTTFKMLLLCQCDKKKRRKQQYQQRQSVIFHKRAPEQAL", "experiment": "biochemical", "assay_type": "binding", "settings": "pIC50 (M3 Binding IC50 classes)", "units": {"IC50": "nM"}}
{"molecule": "C[C@@](C(=O)O[C@H]1C[N+]2(CC(=O)Nc3ccc(C#N)cc3)CCC1CC2)(c1ccccc1)N1CCCCC1", "note": "[Example 11, (3R)-1-{2-[(4-Cyanophenyl)amino]-2-oxoethyl}-3-{[(2S)-2-phenyl-2-piperidin-1-ylpropanoyl]oxy}-1-azoniabicyclo[2.2.2]octane chloride]", "IC50": "2 to 10"}
{"molecule": "CC(C(=O)O[C@H]1C[N+]2(CCCOc3ccccc3)CCC1CC2)(c1ccccc1)N1CCSCC1", "note": "(single isomer, unassigned) [Example 107]", "IC50": "< 2"}
{"molecule": "CC(C(=O)O[C@H]1C[N+]2(CCc3cccc(Cl)c3)CCC1CC2)(c1cccs1)N1CCSCC1", "note": "(single isomer, unassigned) [Example 52]", "IC50": "< 2"}
{"molecule": "C[C@@](C(=O)O[C@H]1C[N+]2(CC[C@@H](O)c3ccccc3)CCC1CC2)(c1ccccc1)N1CCCCC1", "note": "[Example 39]", "IC50": "< 2"}
{"molecule": "CC1(C)CN(C(C)(C(=O)O[C@H]2C[N+]3(CCCOc4ccccc4)CCC2CC3)c2ccccc2)C1", "note": "(single isomer, unassigned) [Example 48]", "IC50": "2 to 10"}
{"molecule": "CC(C(=O)O[C@H]1C[N+]2(CC(=O)Nc3cccc(F)c3)CCC1CC2)(c1cccs1)N1CCSCC1", "note": "(single isomer, unassigned) [Example 53]", "IC50": "< 2"}
{"molecule": "Cc1ccc(C(=O)C[N+]23CCC(CC2)[C@@H](OC(=O)[C@](C)(c2ccccc2)N2CCCCC2)C3)cc1", "note": "[Example 17, (3R)-1-[2-(4-Methylphenyl)-2-oxoethyl]-3-{[(2S)-2-phenyl-2-piperidin-1-ylpropanoyl]oxy}-1-azoniabicyclo[2.2.2]octane bromide]", "IC50": "< 2"}
{"molecule": "CC(C(=O)O[C@H]1C[N+]2(CC(=O)Nc3noc4ccccc34)CCC1CC2)(c1cccs1)N1CCCCC1", "note": "(single isomer, unassigned) [Example 77]", "IC50": "< 2"}
{"molecule": "CCOC(=O)Cc1csc(NC(=O)C[N+]23CCC(CC2)[C@@H](OC(=O)[C@](C)(c2ccccc2)N2CCCCC2)C3)n1", "note": "[Example 19, (3R)-1-(2-{[4-(2-Ethoxy-2-oxoethyl)-1,3-thiazol-2-yl]amino}-2-oxoethyl)-3-{[(2S)-2-phenyl-2-piperidin-1-ylpropanoyl]oxy}-1-azoniabicyclo[2.2.2]octane chloride]", "IC50": "2 to 10"}
{"molecule": "CC(C(=O)O[C@H]1C[N+]2(CCc3cccc(Cl)c3)CCC1CC2)(c1ccccc1)N1CCSCC1", "note": "(single isomer, unassigned) [Example 99]", "IC50": "2 to 10"}
{"molecule": "CC(C(=O)O[C@H]1C[N+]2(Cc3nc4ccccc4s3)CCC1CC2)(c1cccs1)N1CCCCC1", "note": "(single isomer, unassigned) [Example 75]", "IC50": "< 2"}
{"molecule": "Cc1cc(OCCC[N+]23CCC(CC2)[C@@H](OC(=O)C(C)(c2cccs2)N2CCCCC2)C3)cc(C)n1", "note": "(single isomer, unassigned) [Example 81]", "IC50": "2 to 10"}
{"molecule": "CC1(C)CN(C(C)(C(=O)O[C@H]2C[N+]3(CCCOc4ccccc4)CCC2CC3)c2ccc(Cl)cc2)C1", "note": "(single isomer, unassigned) [Example 46]", "IC50": "> 10"}
{"molecule": "C[C@@](C(=O)O[C@H]1C[N+]2(CC(=O)NCc3ccccc3)CCC1CC2)(c1ccccc1)N1CCCCC1", "note": "[Example 16, (3R)-1-[2-(Benzylamino)-2-oxoethyl]-3-{[(2S)-2-phenyl-2-piperidin-1-ylpropanoyl]oxy}-1-azoniabicyclo[2.2.2]octane chloride]", "IC50": "2 to 10"}
{"molecule": "CC(C(=O)O[C@H]1C[N+]2(CCc3cccc(Cl)c3)CCC1CC2)(c1ccccc1)N1CCSCC1", "note": "(single isomer, unassigned) [Example 98]", "IC50": "< 2"}
{"molecule": "CC(C(=O)O[C@H]1C[N+]2(CCc3ccccc3)CCC1CC2)(c1ccccc1)N1CCSCC1", "note": "(single isomer, unassigned) [Example 103]", "IC50": "< 2"}
{"molecule": "CC(C(=O)O[C@H]1C[N+]2(CC(=O)Nc3cccc(F)c3)CCC1CC2)(c1ccccc1)N1CCSCC1", "note": "(single isomer, unassigned) [Example 100]", "IC50": "< 2"}
{"molecule": "Cc1nc(-c2ccc(OCC[N+]34CCC(CC3)[C@@H](OC(=O)[C@](C)(c3ccccc3)N3CCCCC3)C4)cc2)no1", "note": "[Example 43, (3R)-1-{2-[4-(5-Methyl-1,2,4-oxadiazol-3-yl)phenoxy]ethyl}-3-{[(2S)-2-phenyl-2-piperidin-1-ylpropanoyl]oxy}-1-azoniabicyclo[2.2.2]octane bromide]", "IC50": "2 to 10"}
{"molecule": "CC(C(=O)O[C@H]1C[N+]2(CC(=O)Nc3ccon3)CCC1CC2)(c1ccccc1)N1CCSCC1", "note": "(single isomer, unassigned) [Example 102]", "IC50": "< 2"}
{"molecule": "CC(C(=O)O[C@H]1C[N+]2(CCCc3ccccc3)CCC1CC2)(c1cccs1)N1CCSCC1", "note": "(single isomer, unassigned) [Example 50]", "IC50": "< 2"}
{"molecule": "C[C@@](C(=O)O[C@H]1C[N+]2(CC(=O)c3ccccc3)CCC1CC2)(c1ccccc1)N1CCCCC1", "note": "[Example 9, (3R)-l-(2-Oxo-2-phenylethyl)-3-{[(2S)-2-phenyl-2-piperidin-1-ylpropanoyl]oxy}-1-azoniabicyclo[2.2.2]octane bromide]", "IC50": "< 2"}
{"molecule": "CC(C(=O)O[C@H]1C[N+]2(CCc3cccc(Cl)c3)CCC1CC2)(c1ccccc1)N1CCOCC1", "note": "(single isomer, unassigned) [Example 79]", "IC50": "< 2"}
{"molecule": "CC(C(=O)O[C@H]1C[N+]2(CC(=O)c3cccc(F)c3)CCC1CC2)(c1cccs1)N1CCCCC1", "note": "(single isomer, unassigned) [Example 67]", "IC50": "< 2"}
{"molecule": "Cc1ccc(OCC[N+]23CCC(CC2)[C@@H](OC(=O)C(C)(c2cccs2)N2CCCCC2)C3)c(C)n1", "note": "(single isomer, unassigned) [Example 66]", "IC50": "2 to 10"}
{"molecule": "CN(C(=O)C[N+]12CCC(CC1)[C@@H](OC(=O)C(C)(c1cccs1)N1CCCCC1)C2)c1cccc(F)c1", "note": "(single isomer, unassigned) [Example 109]", "IC50": "2 to 10"}
{"molecule": "CC(C(=O)O[C@H]1C[N+]2(CCc3cccc(Cl)c3)CCC1CC2)(c1ccccc1)N1CCCCCC1", "note": "(single isomer, unassigned) [Example 86]", "IC50": "< 2"}
{"molecule": "CC(C(=O)O[C@H]1C[N+]2(CCCOc3ccccc3)CCC1CC2)(c1cccs1)N1CCSCC1", "note": "(single isomer, unassigned) [Example 49]", "IC50": "< 2"}
{"molecule": "CC1(C)CN(C(C)(C(=O)O[C@H]2C[N+]3(CCCOc4ccccc4)CCC2CC3)c2ccc(Cl)cc2)C1", "note": "(single isomer, unassigned) [Example 47]", "IC50": "< 2"}
{"molecule": "C[C@@](C(=O)O[C@H]1C[N+]2(CC(=O)c3cccc(Cl)c3)CCC1CC2)(c1ccccc1)N1CCCCC1", "note": "[Example 6, (3R)-1-[2-(3-Chlorophenyl)-2-oxoethyl]-3-{[(2S)-2-phenyl-2-piperidin-1-ylpropanoyl]oxy}-1-azoniabicyclo[2.2.2]octane bromide]", "IC50": "< 2"}
{"molecule": "CC(C(=O)O[C@H]1C[N+]2(CCCc3cccnc3)CCC1CC2)(c1ccccc1)N1CCCCCC1", "note": "(single isomer, unassigned) [Example 96]", "IC50": "< 2"}
{"molecule": "Cc1cnc(NC(=O)C[N+]23CCC(CC2)[C@@H](OC(=O)C(C)(c2ccccc2)N2CCCCCC2)C3)cn1", "note": "(single isomer, unassigned) [Example 91]", "IC50": "< 2"}
{"molecule": "CC(C(=O)O[C@H]1C[N+]2(Cc3nc(-c4ccccc4)no3)CCC1CC2)(c1cccs1)N1CCCCC1", "note": "(some centres unmarked) [Example 83]", "IC50": "< 2"}
{"molecule": "C[C@@](C(=O)O[C@H]1C[N+]2(CC[C@H](O)c3ccccc3)CCC1CC2)(c1ccccc1)N1CCCCC1", "note": "[Example 38]", "IC50": "< 2"}
{"target": "T1, human muscarinic acetylcholine M3 receptor (M3-ACh)", "experiment": "biochemical", "assay_type": "binding", "settings": "read-out: pIC50 (M3 Binding IC50 classes) (converted)"}
{"molecule": "CC(C(=O)O[C@H]1C[N+]2(CC(=O)Nc3ccc(C(F)(F)F)cn3)CCC1CC2)(c1cccs1)N1CCCCC1", "note": "(stereo partly drawn) [Example 84, (3R)-1-(2-Oxo-2-{[5-(rifluoromethyl)pyridin-2-yl]amino}ethyl)-3-{[2-piperidin-1-yl-2-(2-thienyl)propanoyl]oxy}-1-azoniabicyclo[2.2.2]octane bromide]", "IC50": "2 to 10 nM and < 2 nM"}
{"molecule": "CC(C(=O)O[C@H]1C[N+]2(CCc3cccc(Cl)c3)CCC1CC2)(c1ccccc1)N1CCCCCC1", "note": "(single isomer, unassigned) [Example 87]", "IC50": "< 2 nM"}
